Laboratory results published in patent publication US9669199B2, “Biosynchronous transdermal drug delivery for longevity, anti-aging, fatigue management, obesity, weight loss, weight management, delivery of nutraceuticals, and the treatment of hyperglycemia, alzheimer's disease, sleep disorders, parkinson's disease, aids, epilepsy, attention deficit disorder, …” (Chrono Therapeutics Inc., priority 2004, dated 2017).
Like-named read-outs stand apart in the source and are kept apart here.

Tests used:
[1] = evening versus morning; cited from earlier work
[2] = oral dosing with 5 mg or transdermally with 39 mg; cited from earlier work
[3] = test system: arthritis; conditions: night versus 8:00 am; cited from earlier work
[4] = test system: children aged 7 to 15 with ADHD; conditions: cited from earlier work; for ADHD symptoms and global ratings: parent and clinician ratings, 9 weeks
[5] = test system: metastatic renal cell carcinoma; conditions: continuous infusion, 70% of the daily dose between 15:00 h and 21:00 h; cited from earlier work
[6] = low, medium and high concentrations, 16 hours, 12 human subjects
Experimental: The device, described herein, was tested on 12 healthy male volunteers for an open, three-periods, single center, dose-escalation study using nicotine as the model compound.

[7] = human cadaver skin dermatomed to 0.5 mm, 10 cm^2, 100 mg/ml in ethanol/water 1/1, 200 ul doses, EVA membrane
Experimental: The area of skin permeation was 10 cm^2. […] Each time, 200 µl of formulation was dispensed on a 10 cm^2 surface area of interface of diffusion, separated from the skin by the EVA membrane. […] Additionally, the dose quantity was strictly controlled and monitored. Drug flux samples were obtained using a flow-through Franz cell permeation system with samples collected every 15 minutes. Hourly time point samples were analyzed and recorded. Samples were analyzed by UV/Vis spectrophotometry.

[8] = test system: smoking; conditions: in vivo; cited from earlier work
[9] = test system: sleep-deprived F-117 pilots; conditions: 300 mg in three divided 100-mg doses; cited from earlier work
[10] = test system: helicopter pilots; conditions: 600 mg in three doses, 8 hours of sleep in an 88 hour period; cited from earlier work
[11] = in vivo; cited from earlier work
[12] = test system: humans subjected to simulated night shift work; conditions: cited from earlier work
[13] = test system: rhesus monkeys; conditions: sleep deprivation; cited from earlier work
[14] = in vivo; cited from earlier work; remark: listed apart in the source

**Q.** Which “absorption by time of day” value [1] does the source give for `CCCC(CCC)C(=O)O` [valproate] here?
**A.** Its value is “absorb it more slowly and less efficiently when they take it in the evening than in the morning”.

**Q.** For `CCN(CC)CC#CCOC(=O)C(O)(c1ccccc1)C1CCCCC1` (stereo not shown) [oxybutynin], which “mean maximum blood plasma concentration” value [2] is on record?
**A.** Its value is 3 ng/mL.

**Q.** Which “efficacy and patient compliance by time of dosing” value [3] does the source give for `COc1ccc2c(c1)c(CC(=O)O)c(C)n2C(=O)c1ccc(Cl)cc1` [indomethacin] here?
**A.** The value was “better efficacy and patient compliance when dosed at night than when dosed at 8:00 am”.

**Q.** Which results are given for `COC(=O)C(c1ccccc1)C1CCCCN1` (stereo not shown) [methylphenidate]?
**A.** tolerability ([4]; atomoxetine twice daily, methylphenidate 2 or 3 times daily): well tolerated; ADHD symptoms and global ratings [4]: associated with reductions in ADHD symptoms and improved global ratings

**Q.** With `O=c1[nH]c(=O)n([C@H]2C[C@H](O)[C@@H](CO)O2)cc1F` [fluorodeoxyuridine] as the molecule, how does the objective response [5] read?
**A.** The objective response was 29%.

**Q.** Which results are given for `CN1CCCC1c1cccnc1` (stereo not shown) [nicotine]?
**A.** blood plasma concentration profile [6]: clear and distinct peaks and troughs of therapeutically effective and well-targeted blood plasma concentration levels; maximum transdermal flux value [7]: 160 ng/cm^2/hr

**Q.** With `c1cnc2cc3c(cc2n1)[C@@H]1CNC[C@H]3C1` [varenicline] as the molecule, how does the “chances of quitting smoking” value [8] read?
**A.** Its value is “can more than double the chances of quitting smoking”.

**Q.** For `NC(=O)C[S+]([O-])C(c1ccccc1)c1ccccc1` (stereo not shown) [modafinil], which “flight control accuracy sustained to within percent of baseline levels” value [9] is on record?
**A.** The value was “about 27%”.

**Q.** What about the alertness of pilots [10] of the same molecule?
**A.** The alertness of pilots was “can be used to keep pilots alert”.

**Q.** For `O=C(C[S+]([O-])C(c1ccccc1)c1ccccc1)NO` (stereo not shown) [Adrafinil], which half-life [11] is on record?
**A.** The half-life was “about 60 minutes”.

**Q.** And the “time to peak concentration” value [11]?
**A.** The value was “about 60 minutes”.

**Q.** With `O=C(c1ccc2nonc2c1)N1CCOCC1` [CX717] as the molecule, how does the cognitive performance [12] read?
**A.** The cognitive performance was “did not improve cognitive performance”.

**Q.** What about the “performance after receiving the drug” value [13] of the same molecule?
**A.** Its value is “performed faster and better”.

**Q.** With `CNCC[C@@H](Oc1ccccc1C)c1ccccc1` [atomoxetine] as the molecule, how does the tolerability ([4]; in vivo) read?
**A.** The tolerability was “well tolerated”.

**Q.** What about the “ADHD symptoms and global ratings” value [4] of the same molecule?
**A.** Its value is “associated with reductions in ADHD symptoms and improved global ratings”.

**Q.** What about the half-life average [14] of the same molecule?
**A.** The half-life average was 3.12 h.

**Q.** And the “time of peak plasma concentration after dosing” value [14]?
**A.** Its value is 1 to 2 h.
